These results are taken from US20250195513A1, “DEGRADATION OF IRAK4 BY CONJUGATION OF IRAK4 INHIBITORS WITH E3 LIGASE LIGAND AND METHODS OF USE” (BeiGene, Ltd., priority 2022, published 2025).

Assay [1] concerns the target T1, IRAK4 (Homo sapiens, UniProt Q9NWZ3).
T1 construct: endogenous in cells; host or cells: Karpas299
T1 sequence (Q9NWZ3 1-460): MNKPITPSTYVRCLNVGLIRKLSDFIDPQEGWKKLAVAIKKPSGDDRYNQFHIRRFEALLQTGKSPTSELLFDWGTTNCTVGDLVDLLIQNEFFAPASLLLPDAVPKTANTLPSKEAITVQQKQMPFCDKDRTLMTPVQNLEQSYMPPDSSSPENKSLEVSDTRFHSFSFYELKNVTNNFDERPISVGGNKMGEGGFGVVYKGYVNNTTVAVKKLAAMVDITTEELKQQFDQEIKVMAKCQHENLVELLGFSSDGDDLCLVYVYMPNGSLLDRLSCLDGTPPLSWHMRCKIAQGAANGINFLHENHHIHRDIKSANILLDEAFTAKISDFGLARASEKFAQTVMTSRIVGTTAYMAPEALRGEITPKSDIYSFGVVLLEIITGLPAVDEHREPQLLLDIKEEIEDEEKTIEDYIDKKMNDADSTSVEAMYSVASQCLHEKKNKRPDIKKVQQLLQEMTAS
Kind of assay: IRAK4 Degradation Assay (Karpas299, HTRF/TR-FRET). Type of assay: cell-based. The conditions noted are these: Karpas-299 cells; for Dmax: maximum percentage of degradation. The method, boiled down:
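Karpas299 cells at 0.2 million per well were exposed to serially diluted compounds for 24 h or 5 h, then lysed. IRAK4 remaining in lysates was quantified by HTRF (665/620 nm) after overnight antibody incubation at room temperature. Percent degradation was fitted to a four-parameter curve to give IC50 (DC50).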

For assay [2], the target named is T1, IRAK4. Kind of assay: IRAK4 Degradation Assay with Human Serum (Karpas299, HTRF/TR-FRET). The conditions noted are these: Karpas-299 in human serum, 24 hrs treatment; for DC50: read-out: IRAK4 degradtion with human serum assay DC50; for Dmax: read-out: IRAK4 degradtion with human serum assay Dmax (%). In kind it is cell-based. The method, boiled down:
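Karpas299 cells in human AB serum (0.2 million/well) treated with serial compound dilutions for 24 h. After lysis, IRAK4 quantified by HTRF (overnight antibody incubation at room temperature, 665/620 nm read). Degradation percentage fitted to four-parameter curve to give DC50.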
On the technique in general: Time-resolved FRET reads energy transfer from a long-lived donor to a nearby acceptor.

Setting [3] is: 24 h treatment, read-out: IRAK4 in Karpas-299 (24 h) Dmax (%).
Where [4] appears, read: 24 h treatment, read-out: IRAK4 in Karpas-299 (24 h) DC50.

Usually Dmax stands for the largest share of the target that was removed. As a reminder, the DC50 is the midpoint of the concentration-degradation curve. With `Cc1nc(C2CCC(=O)NC2=O)ccc1N1CCC(N2CCN(C34CCC(n5cc6cc(NC(=O)c7ccc8cc(C#N)cnn78)c(C(C)(C)O)cc6n5)(CC3)CC4)CC2)CC1` (stereo not drawn) [Example 416, 3-cyano-N-(2-(4-(4-(1-(6-(2,6-dioxopiperidin-3-yl)-2-methylpyridin-3-yl)piperidin-4-yl)piperazin-1-yl)bicyclo[2.2.2]octan-1-yl)-6-(2-hydroxypropan-2-yl)-2H-indazol-5-yl)pyrrolo[1,2-b]pyridazine-7-carboxamide], the Dmax on IRAK4 [1] (setting [3]) came out at 98%; on IRAK4 [2], 99%. For the same compound, the DC50 turned out to be 1.9 nM on IRAK4 [1] (setting [4]) and 9.2 nM at IRAK4 [2].

Take `CC(C)(O)c1cc2nn(C3CCN([C@@H]4CCN(C5CCN(c6cc(F)c([C@H]7CCC(=O)NC7=O)c(F)c6)CC5)CC4(F)F)CC3)cc2cc1NC(=O)c1ccc2cc(C#N)cnn12` [Example 341, 3-cyano-N-(2-((R)-1″-(4-((R)-2,6-dioxopiperidin-3-yl)-3,5-difluorophenyl)-3′,3′-difluoro-[1,4′:1′,4″-terpiperidin]-4-yl)-6-(2-hydroxypropan-2-yl)-2H-indazol-5-yl)pyrrolo[1,2-b]pyridazine-7-carboxamide]: the values for the Dmax at IRAK4 [1] (setting [3]) and at IRAK4 [2] were 97% and 96%, respectively. Also, the DC50 at IRAK4 [1] (setting [4]) came to 1.5 nM; on IRAK4 [2], 15 nM.

As for `CC(C)(O)c1cc2nn([C@H]3CC[C@H](C4CCN(C5CCN(c6cc(F)c([C@H]7CCC(=O)NC7=O)c(F)c6)CC5)CC4)CC3)cc2cc1NC(=O)c1ccc2cc(C#N)cnn12` [Example 409, 3-cyano-N-(2-((1r,4r)-4-(1′-(4-((R)-2,6-dioxopiperidin-3-yl)-3,5-difluorophenyl)-[1,4′-bipiperidin]-4-yl)cyclohexyl)-6-(2-hydroxypropan-2-yl)-2H-indazol-5-yl)pyrrolo[1,2-b]pyridazine-7-carboxamide], the Dmax at IRAK4 [1] (setting [3]) was found to be 97%; at IRAK4 [2] it was 96%. Also, the 50% degradation concentration (DC50) on IRAK4 [1] (setting [4]) stood at 3.5 nM; on IRAK4 [2], 10 nM.

With `Cn1c(=O)n(C2CCC(=O)NC2=O)c2cccc(CCCN3CCN(C45CC(n6cc7cc(NC(=O)c8ccc9cc(C#N)cnn89)c(C(C)(C)O)cc7n6)(C4)C5)CC3)c21` (stereo not drawn) [Example 350, 3-cyano-N-(2-(3-(4-(3-(1-(2,6-dioxopiperidin-3-yl)-3-methyl-2-oxo-2,3-dihydro-1H-benzo[d]imidazol-4-yl)propyl)piperazin-1-yl)bicyclo[1.1.1]pentan-1-yl)-6-(2-hydroxypropan-2-yl)-2H-indazol-5-yl)pyrrolo[1,2-b]pyridazine-7-carboxamide], the Dmax at IRAK4 [1] (setting [3]) was 89%; on IRAK4 [2], 97%. For the same compound, the results for the DC50 at IRAK4 [1] (setting [4]) and on IRAK4 [2] were 2.1 nM and 16 nM, respectively.

Regarding `COC[C@@H]1CN([C@H]2CC[C@H](n3cc4cc(NC(=O)c5ccc6cc(C#N)cnn56)c(C(C)(C)O)cc4n3)CC2)CCN1C(=O)C1CN(c2cc(F)c(N3CCC(=O)NC3=O)c(F)c2)C1` [Example 410, 3-cyano-N-(2-((1S,4r)-4-((S)-4-(1-(4-(2,4-dioxotetrahydropyrimidin-1(2H)-yl)-3,5-difluorophenyl)azetidine-3-carbonyl)-3-(methoxymethyl)piperazin-1-yl)cyclohexyl)-6-(2-hydroxypropan-2-yl)-2H-indazol-5-yl)pyrrolo[1,2-b]pyridazine-7-carboxamide], the Dmax at IRAK4 [1] (setting [3]) was found to be 98%; on IRAK4 [2], 91%. Besides, the results for the DC50 at IRAK4 [1] (setting [4]) and on IRAK4 [2] were 1.8 nM and 18 nM, respectively.

As for `COC[C@@H]1CN(C(=O)C2CN(c3cc(F)c([C@H]4CCC(=O)NC4=O)c(F)c3)C2)CCN1[C@H]1CC[C@H](n2cc3cc(NC(=O)c4ccc5cc(C#N)cnn45)c(C(C)(C)O)cc3n2)CC1` [Example 183, 3-cyano-N-(2-((1S,4r)-4-((S)-4-(1-(4-((R)-2,6-dioxopiperidin-3-yl)-3,5-difluorophenyl)azetidine-3-carbonyl)-2-(methoxymethyl)piperazin-1-yl)cyclohexyl)-6-(2-hydroxypropan-2-yl)-2H-indazol-5-yl)pyrrolo[1,2-b]pyridazine-7-carboxamide], the figures for the Dmax on IRAK4 [1] (setting [3]) and on IRAK4 [2] were 98% and 95%, respectively. Moreover, the DC50 at IRAK4 [1] (setting [4]) came to 0.3 nM; on IRAK4 [2], 35 nM.

With `CC(C)(O)c1cc2nn([C@H]3CC[C@H](N4CCN(C5CCN(c6ccc7c(c6)C(=O)N(C6CCC(=O)NC6=O)C7=O)CC5)CC4)CC3)cc2cc1NC(=O)c1ccc2cc(C#N)cnn12` (stereo partly drawn) [Example 430, 3-cyano-N-(2-((1r,4r)-4-(4-(1-(2-(2,6-dioxopiperidin-3-yl)-1,3-dioxoisoindolin-5-yl)piperidin-4-yl)piperazin-1-yl)cyclohexyl)-6-(2-hydroxypropan-2-yl)-2H-indazol-5-yl)pyrrolo[1,2-b]pyridazine 7-carboxamide], the Dmax amounted to 97% at IRAK4 [1] (setting [3]) and 98% on IRAK4 [2]. Besides, the DC50 at IRAK4 [1] (setting [4]) was found to be 1.4 nM; on IRAK4 [2], 15 nM.

Regarding `CCc1cc(N2CC(C(=O)N3CCN([C@H]4CC[C@H](n5cc6cc(NC(=O)c7ccc8cc(C#N)cnn78)c(C(C)(C)O)cc6n5)CC4)CC3)C2)ccc1N1CCC(=O)NC1=O` [Example 257, 3-cyano-N-(2-((1r,4r)-4-(4-(1-(4-(2,4-dioxotetrahydropyrimidin-1(2H)-yl)-3-ethylphenyl)azetidine-3-carbonyl)piperazin-1-yl)cyclohexyl)-6-(2-hydroxypropan-2-yl)-2H-indazol-5-yl)pyrrolo[1,2-b]pyridazine-7-carboxamide], the Dmax on IRAK4 [1] (setting [3]) and on IRAK4 [2] was 97% in each case. For the same compound, the DC50 at IRAK4 [1] (setting [4]) came to 1.7 nM; on IRAK4 [2] it was 28 nM.

As to `CC(C)(O)c1cc2nn([C@H]3CC[C@H](N4CCN(CC5CN(c6cc(F)c([C@H]7CCC(=O)NC7=O)c(F)c6)C5)C[C@@H]4CO)CC3)cc2cc1NC(=O)c1ccc2cc(C#N)cnn12` [Example 400, 3-cyano-N-(2-((1R,4r)-4-((R)-4-((1-(4-((R)-2,6-dioxopiperidin-3-yl)-3,5-difluorophenyl)azetidin-3-yl)methyl)-2-(hydroxymethyl)piperazin-1-yl)cyclohexyl)-6-(2-hydroxypropan-2-yl)-2H-indazol-5-yl)pyrrolo[1,2-b]pyridazine-7-carboxamide], the maximal degradation (Dmax) on IRAK4 [1] (setting [3]) and on IRAK4 [2] was 97% in each case. In addition, the 50% degradation concentration (DC50) on IRAK4 [1] (setting [4]) is 0.5 nM; at IRAK4 [2], 3.8 nM.

`COc1cc(N2CC(C(=O)N3CCN([C@H]4CC[C@H](n5cc6cc(NC(=O)c7ccc8cc(C#N)cnn78)c(C(C)(C)O)cc6n5)CC4)CC3)C2)cc(F)c1N1CCC(=O)NC1=O` [Example 210, 3-cyano-N-(2-((1r,4r)-4-(4-(1-(4-(2,4-dioxotetrahydropyrimidin-1(2H)-yl)-3-fluoro-5-methoxyphenyl)azetidine-3-carbonyl)piperazin-1-yl)cyclohexyl)-6-(2-hydroxypropan-2-yl)-2H-indazol-5-yl)pyrrolo[1,2-b]pyridazine-7-carboxamide]: the Dmax on IRAK4 [1] (5 h treatment, read-out: IRAK4 in Karpas-299 (5 h) Dmax (%)) amounted to 97%; at IRAK4 [1] (setting [3]), 97%; at IRAK4 [2], 98%. The DC50 at IRAK4 [1] (5 h treatment, read-out: IRAK4 in Karpas-299 (5 h) DC50) was 6.8 nM; on IRAK4 [1] (setting [4]), 3.3 nM; at IRAK4 [2] it was 7 nM.
